Laboratory results published in patent US20220340597A1, “HEXAHYDRO-1H-PYRAZINO[1,2-A]PYRAZINE COMPOUNDS FOR THE TREATMENT OF AUTOIMMUNE DISEASE” (Hoffmann-La Roche Inc., priority 2019, published 2022).

Legend:
[1] = biological target: T1, human TLR7 (Homo sapiens, UniProt Q9NYK1); assay: HEK293-Blue-hTLR-7 cells assay; type: cell-based; conditions: HEK293-Blue-hTLR7 cells, R848 stimulation, 20 hrs, SEAP reporter; read-out: HEK/hTLR7 IC50
T1 construct: host or cells: HEK293 (HEK-Blue hTLR7)
T1 sequence (Q9NYK1 27-1049): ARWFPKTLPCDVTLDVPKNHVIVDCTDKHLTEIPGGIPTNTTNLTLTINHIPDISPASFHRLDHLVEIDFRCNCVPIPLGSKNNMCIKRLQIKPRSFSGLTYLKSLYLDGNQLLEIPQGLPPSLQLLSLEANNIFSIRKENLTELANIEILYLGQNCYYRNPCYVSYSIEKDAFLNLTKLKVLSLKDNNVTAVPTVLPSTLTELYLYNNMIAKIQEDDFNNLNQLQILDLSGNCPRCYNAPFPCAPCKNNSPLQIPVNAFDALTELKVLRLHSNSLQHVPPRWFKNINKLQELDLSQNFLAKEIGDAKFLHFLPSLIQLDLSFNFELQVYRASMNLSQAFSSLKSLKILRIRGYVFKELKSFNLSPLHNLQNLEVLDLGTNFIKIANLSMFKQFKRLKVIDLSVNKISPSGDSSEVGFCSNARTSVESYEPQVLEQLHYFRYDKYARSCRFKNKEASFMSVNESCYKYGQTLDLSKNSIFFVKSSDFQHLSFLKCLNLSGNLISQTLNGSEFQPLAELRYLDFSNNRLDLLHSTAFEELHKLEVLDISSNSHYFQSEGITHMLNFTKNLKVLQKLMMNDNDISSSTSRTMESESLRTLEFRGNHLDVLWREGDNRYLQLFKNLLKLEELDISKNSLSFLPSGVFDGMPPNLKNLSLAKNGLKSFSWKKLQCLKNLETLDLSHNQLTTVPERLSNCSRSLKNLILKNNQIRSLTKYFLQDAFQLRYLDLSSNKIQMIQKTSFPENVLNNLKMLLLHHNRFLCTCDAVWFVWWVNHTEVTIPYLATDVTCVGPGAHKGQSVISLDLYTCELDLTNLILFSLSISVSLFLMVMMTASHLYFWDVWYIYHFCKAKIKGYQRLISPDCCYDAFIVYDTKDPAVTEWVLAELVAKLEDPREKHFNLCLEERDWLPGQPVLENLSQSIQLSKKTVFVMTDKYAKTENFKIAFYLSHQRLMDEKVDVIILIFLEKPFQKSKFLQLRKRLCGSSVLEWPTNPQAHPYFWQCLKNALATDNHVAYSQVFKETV

[2] = biological target: T2, human TLR8 (Homo sapiens, UniProt Q9NR97); assay: HEK293-Blue-hTLR-8 cells assay
T2 sequence (Q9NR97 27-1041): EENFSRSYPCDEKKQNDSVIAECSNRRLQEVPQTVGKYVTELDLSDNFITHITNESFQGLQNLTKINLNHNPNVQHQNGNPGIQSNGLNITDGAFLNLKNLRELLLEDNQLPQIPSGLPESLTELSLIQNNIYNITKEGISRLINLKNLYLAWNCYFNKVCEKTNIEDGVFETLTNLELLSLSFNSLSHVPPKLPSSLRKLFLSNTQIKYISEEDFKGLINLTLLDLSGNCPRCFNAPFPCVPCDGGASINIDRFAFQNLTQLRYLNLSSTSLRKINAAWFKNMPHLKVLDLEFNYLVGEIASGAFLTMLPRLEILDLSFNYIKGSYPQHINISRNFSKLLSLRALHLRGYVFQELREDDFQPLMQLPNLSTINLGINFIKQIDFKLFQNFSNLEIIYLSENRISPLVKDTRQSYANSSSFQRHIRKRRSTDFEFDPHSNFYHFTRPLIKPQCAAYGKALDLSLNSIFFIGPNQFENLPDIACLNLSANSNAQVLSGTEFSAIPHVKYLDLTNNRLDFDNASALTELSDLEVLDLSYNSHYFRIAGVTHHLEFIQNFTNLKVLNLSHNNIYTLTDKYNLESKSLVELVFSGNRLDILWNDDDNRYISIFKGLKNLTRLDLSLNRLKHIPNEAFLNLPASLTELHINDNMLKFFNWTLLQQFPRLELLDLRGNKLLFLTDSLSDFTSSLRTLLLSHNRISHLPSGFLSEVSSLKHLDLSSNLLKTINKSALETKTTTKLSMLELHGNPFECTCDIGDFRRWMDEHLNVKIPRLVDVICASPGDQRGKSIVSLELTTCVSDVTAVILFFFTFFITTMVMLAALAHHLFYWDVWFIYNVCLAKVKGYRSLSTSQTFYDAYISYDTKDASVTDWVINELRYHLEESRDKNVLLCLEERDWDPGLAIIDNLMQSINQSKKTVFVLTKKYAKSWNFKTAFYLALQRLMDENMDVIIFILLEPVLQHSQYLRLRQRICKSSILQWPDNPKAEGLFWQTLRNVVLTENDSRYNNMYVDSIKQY

Structure (SMILES)	IC50 [1] [nM]	IC50 [2] [nM]
[2H]c1ccc2c(N3C[C@@H]4CN(Cc5ccc(N[C@H]6CNC[C@H]6F)nc5C)CCN4[C@H](C)C3)ccc(C#N)c2n1 [Example 82, 5-[(4R,9aS)-8-[[6-[[(3S,4R)-4-fluoropyrrolidin-3-yl]amino]-2-methyl-3-pyridyl]methyl]-4-methyl-3,4,6,7,9,9a-hexahydro-JH-pyrazino[1,2-a]pyrazin-2-yl]-2-deuterio-quinoline-8-carbonitrile]	12	3
[2H]c1ccc2c(N3C[C@@H]4CN(Cc5ccc(N6CC7CNCC(C6)O7)nc5C)CCN4[C@H](C)C3)ccc(C#N)c2n1 [Example 83, 5-[(4R,9aS)-4-methyl-8-[[2-methyl-6-(9-oxa-3,7-diazabicyclo[3.3.1]nonan-3-yl)-3-pyridyl]methyl]-3,4,6,7,9,9a-hexahydro-1H-pyrazino[1,2-a]pyrazin-2-yl]-2-deuterio-quinoline-8-carbonitrile]	17	7
[2H]c1ccc2c(N3C[C@@H]4CN(CCc5ccc(N6CC[C@@](C)(N)C6)nc5)CCN4[C@H](C)C3)ccc(C#N)c2n1 [Example 84, 5-[(4R,9aS)-8-[2-[6-[(3R)-3-amino-3-methyl-pyrrolidin-1-yl]-3-pyridyl]ethyl]-4-methyl-3,4,6,7,9,9a-hexahydro-1H-pyrazino[1,2-a]pyrazin-2-yl]-2-deuterio-quinoline-8-carbonitrile]	16	19
[2H]c1ccc2c(N3C[C@@H]4CN(CCc5ccnc(N6C[C@@H](N)[C@@H](F)C6)c5)CCN4[C@H](C)C3)ccc(C#N)c2n1 [Example 89, 5-[(4R,9aS)-8-[2-[2-[(3R,4S)-3-amino-4-fluoro-pyrrolidin-1-yl]-4-pyridyl]ethyl]-4-methyl-3,4,6,7,9,9a-hexahydro-1H-pyrazino[1,2-a]pyrazin-2-yl]-2-deuterio-quinoline-8-carbonitrile]	28	44
[2H]c1ccc2c(N3C[C@@H]4CN(Cc5ccc(N6CC7CC(C6)N7)nc5C)CCN4[C@H](C)C3)ccc(C#N)c2n1 [Example 90, 5-[(4R,9aS)-8-[[6-(3,6-diazabicyclo[3.1.1]heptan-3-yl)-2-methyl-3-pyridyl]methyl]-4-methyl-3,4,6,7,9,9a-hexahydro-1H-pyrazino[1,2-a]pyrazin-2-yl]-2-deuterio-quinoline-8-carbonitrile]	13	8
[2H]c1ccc2c(N3C[C@@H]4CN(Cc5ccc(N6CC7CCC(C6)N7)nc5C)CCN4[C@H](C)C3)ccc(C#N)c2n1 [Example 91, 5-[(4R,9aS)-8-[[6-(3,8-diazabicyclo[3.2.1]octan-3-yl)-2-methyl-3-pyridyl]methyl]-4-methyl-3,4,6,7,9,9a-hexahydro-1H-pyrazino[1,2-a]pyrazin-2-yl]-2-deuterio-quinoline-8-carbonitrile]	15	20
[2H]c1ccc2c(N3C[C@@H]4CN(Cc5ccc(N6C[C@@H]7C[C@H]6CN7)nc5C)CCN4[C@H](C)C3)ccc(C#N)c2n1 [Example 92, 5-[(4R,9aS)-8-[[6-[(1S,4S)-2,5-diazabicyclo[2.2.1]heptan-2-yl]-2-methyl-3-pyridyl]methyl]-4-methyl-3,4,6,7,9,9a-hexahydro-1H-pyrazino[1,2-a]pyrazin-2-yl]-2-deuterio-quinoline-8-carbonitrile]	6	9

The remaining lines, values ahead:

IC50 [1] [nM]	IC50 [2] [nM]	Structure (SMILES)
17	10	C[C@@H]1CN(c2ccc(C#N)c3ncccc23)C[C@@H]2CN(Cc3ccc4c(c3)CNCC4)CCN21 (relative stereo) [Example 1]
20	12	C[C@@H]1CN(c2ccc(C#N)c3ncccc23)C[C@@H]2CN(Cc3ccnc(N4CCNCC4)c3)CCN21 (relative stereo) [Example 3]
23	5	[2H]c1ccc2c(N3C[C@@H]4CN(Cc5ccc(N6CC7(CN(C)C7)C6)nc5C)CCN4[C@H](C)C3)ccc(C#N)c2n1 [Example 80, 5-[(4R,9aS)-4-methyl-8-[[2-methyl-6-(6-methyl-2,6-diazaspiro[3.3]heptan-2-yl)-3-pyridyl]methyl]-3,4,6,7,9,9a-hexahydro-1H-pyrazino[1,2-a]pyrazin-2-yl]-2-deuterio-quinoline-8-carbonitrile]
16	5	[2H]c1ccc2c(N3C[C@@H]4CN(Cc5ccc(N6CC[C@@](C)(N)C6)nc5C)CCN4[C@H](C)C3)ccc(C#N)c2n1 [Example 81, 5-[(4R,9aS)-8-[[6-[(3R)-3-amino-3-methyl-pyrrolidin-1-yl]-2-methyl-3-pyridyl]methyl]-4-methyl-3,4,6,7,9,9a-hexahydro-1H-pyrazino[1,2-a]pyrazin-2-yl]-2-deuterio-quinoline-8-carbonitrile]
19	10	Cc1nc(N2CCNC[C@@H]2C)ccc1CN1CCN2[C@@H](C1)CN(c1ccc(C#N)c3ncccc13)C[C@H]2C [Example 85, 5-[(4R,9aS)-4-methyl-8-[[2-methyl-6-[(2S)-2-methylpiperazin-1-yl]-3-pyridyl]methyl]-3,4,6,7,9,9a-hexahydro-1H-pyrazino[1,2-a]pyrazin-2-yl]quinoline-8-carbonitrile]
15	12	Cc1nc(N2CCN[C@H](C)C2)ccc1CN1CCN2[C@@H](C1)CN(c1ccc(C#N)c3ncccc13)C[C@H]2C [Example 86, 5-[(4R,9aS)-4-methyl-8-[[2-methyl-6-[(3R)-3-methylpiperazin-1-yl]-3-pyridyl]methyl]-3,4,6,7,9,9a-hexahydro-1H-pyrazino[1,2-a]pyrazin-2-yl]quinoline-8-carbonitrile]
17	15	[2H]c1ccc2c(N3C[C@@H]4CN(Cc5cnc(N6CCNCC6)cc5C)CCN4[C@H](C)C3)ccc(C#N)c2n1 [Example 87, 5-[(4R,9aS)-4-methyl-8-[(4-methyl-6-piperazin-1-yl-3-pyridyl)methyl]-3,4,6,7,9,9a-hexahydro-1H-pyrazino[1,2-a]pyrazin-2-yl]-2-deuterio-quinoline-8-carbonitrile]
40	10	[2H]c1ccc2c(N3C[C@@H]4CN(Cc5nc(N6CCNCC6)ccc5C)CCN4[C@H](C)C3)ccc(C#N)c2n1 [Example 88, 5-[(4R,9aS)-4-methyl-8-[(3-methyl-6-piperazin-1-yl-2-pyridyl)methyl]-3,4,6,7,9,9a-hexahydro-1H-pyrazino[1,2-a]pyrazin-2-yl]-2-deuterio-quinoline-8-carbonitrile]
10	61	Cc1cc(N2CCNCC2)cnc1N1CCN2[C@@H](C1)CN(c1cc(=O)n(C)c3ncccc13)C[C@H]2C [Example 93, 4-[(4R,9aR)-4-methyl-8-(3-methyl-5-piperazin-1-yl-2-pyridyl)-3,4,6,7,9,9a-hexahydro-1H-pyrazino[1,2-a]pyrazin-2-yl]-1-methyl-1,8-naphthyridin-2-one]
